Test results taken from patent publication US10472420B2, “Immune response modifier conjugates” (3M INNOVATIVE PROPERTIES COMPANY, priority 2006, dated 2019).

| melting point | Structure (SMILES) |
| --- | --- |
| 203 to 204.6 °C | CCOCc1nc2c(N)nc3ccccc3c2n1CC(C)(C)NC(=O)CCC(=O)NN [IRM5, N-{2-[4-Amino-2-(ethoxymethyl)-1H-imidazo[4,5-c]quinolin-1-yl]-1,1-dimethylethyl}-4-hydrazino-4-oxobutanamide] |
| 152 to 157 °C | CCOCc1nc2c(N)nc3cc(OCCCCCCNC(=O)CCS)ccc3c2n1CC(C)(C)NS(C)(=O)=O [IRM10, N-{6-[(4-Amino-2-(ethoxymethyl)-1-{2-methyl-2-[(methylsulfonyl)amino]propyl}-1H-imidazo[4,5-c]quinolin-7-yl)oxy]hexyl}-3-mercaptopropanamide] |
